# From BindingDB's records for doi:10.1016/S0960-894X(01)80909-4 (1993)
# Columns and labels:
# [1] = molecular target: Diamine oxidase (Sus scrofa); assay: Tested for ability to competitively inhibit hog kidney diamine oxidase (DAO) in a spectrometric assay
# [2] = molecular target: Diamine oxidase (Sus scrofa); assay: as above; remark: listed apart in the source
Ki [1],Ki [2],Structure (SMILES)
200 nM,170 nM,NCC=Cc1cnc[nH]1
–,7100 nM,C=C(CN)c1cnc[nH]1 [2-(1H-Imidazol-4-yl)-allylamine]
–,1700 nM,NCC#Cc1cnc[nH]1 [3-(1H-Imidazol-4-yl)-prop-2-ynylamine]
